Laboratory results as given in patent US20150366831A1, “THROMBORESISTANT/BACTERICIDAL S-NITROSO-N-[…] (SNAP)-DOPED NITRIC OXIDE RELEASE POLYMERS WITH ENHANCED STABILITY” (THE REGENTS OF THE UNIVERSITY OF MICHIGNA, priority 2013, published 2015).

Test: SNAP/E2As dry storage stability study
Type: physicochemical
Conditions: SNAP doped in E2As polymer
Protocol: The stability of SNAP doped in the E2As polymer during dry storage was also evaluated. SNAP incorporated in E2As can potentially undergo thermal or photochemical decomposition during storage, thus limiting the available NO release capacity at the time of use. Therefore, 10 wt % SNAP/E2As films were stored with desiccant in the freezer in the dark, dry in the dark or in ambient light with desiccant at room temperature, and dry in the dark with desiccant at 37° C. and 50° C. These stability studies were conducted in a similar manner as the cumulative NO release experiments, where films were dissolved in DMAc to determine the amount of SNAP remaining in the polymer at various time points (as described herein). […] After 2 months, for example, the 10 wt % SNAP films stored in the freezer (−20° C.) in the dark maintain about 96% of the initial SNAP species, compared to 89% for films stored at room temperature and 82% for films stored at 37° C. (see FIG. 8). […]
SNAP/E2As films (consisting of 10 wt % SNAP) were placed under the following conditions in vials with desiccant: room temperature with ambient light, room temperature in dark, 37° C. in dark, and in the freezer (−20° C.) in dark. At various time points over a 4 month period, films were dissolved in DMAc, and the UV-Vis spectra was recorded to determine the % SNAP remaining in the film, as compared to the initial 10 wt % SNAP.

Time for which SNAP is stable in the Elast-Eon E2As polymer: at least 4 months
Structure (SMILES): CC(=O)N[C@H](C(=O)O)C(C)(C)SN=O (racemic) [SNAP, S-nitroso-N-acetylpenicillamine]
